± gives the expanded uncertainty stated by the source.

A short description of series [1]: Molar enthalpy of transition or fusion. To be noted: Crystal; DSC.
The conditions of series [2]: Crystal; DTA.

Consider `O=C(O)/C=C/c1ccccc1` [(E)-cinnamic acid], for which the “Molar enthalpy of transition or fusion” value in series [1] came to 22.2 ± 0.85 kJ/mol. The Normal melting temperature in series [2] came out at 133.00 ± 0.7 °C.

These data come from the NIST ThermoML archive (doi:10.1021/acs.jced.5b00814).
